Measured values: patent US4464388A, “Use of prostaglandin analogues to treat cytodamage” (priority 1982, dated 1984)
Like-named read-outs stand apart in the source and are kept apart here.

Experiments:
Acute toxicity test = conditions: mouse, in vivo; oral, mice observed for 14 days
Description: Male JCL-ICR mice (non SPF mice) from 7 weeks of age were used. The compound under test was dissolved in 5% v/v ethanol containing 0.4% w/v Tween 80 (Tween is a registered trademark) and administered orally to the mice. […] The deaths observed were all within 72 hrs after treatment.

[1] = test system: alcohol-induced acute liver damage; assay: Effect on alcohol-induced acute liver damage; format: in vivo, Male Wistar rats; conditions: p.o., 50 μg/kg; blood after 24 hr
Description: Effect on alcohol-induced acute liver damage
Male Wistar rats weighing 180-220 g were used. After the rats had fasted for 18 hr, 50% v/v ethanol solution was given orally to them at a volume of 12 ml/kg. The compound under test was administered orally 30 min before and 2 and 8 hr after administration of ethanol and blood was collected after 24 hr. Plasma GOT and GPT activities were determined in the manner described in Experiment 1. Effects were shown by the inhibition rate compared with controls (calculation by the formula shown in Experiment 1).

[2] = test system: D(+)-galactosamine hydrochloride-induced liver damage; assay: Effect on D(+)-galactosamine hydrochloride-induced liver damage (hepatitis type); format: in vivo, Male Wistar rats; conditions: p.o., 100 μg/kg
Description: Effect on D(+)-galactosamine hydrochloride-induced liver damage (hepatitis type)
Male Wistar rats weighing 180-220 g were used. After the rats had fasted for 18 hr, 250 mg/kg galactosamine hydrochloride was administered to them intraperitoneally three times at 4 hr intervals. The compound under test was administered orally 6, 12, 18, 24, 30, 36, 42 and 48 hr after the dose of D(+)-galactosamine hydrochloride and blood was collected after 36, 48 and 54 hr. Plasma GOT and GPT activities were determined in the manner described in Experiment 1 and the effects were shown by the inhibition rate compared with controls (calculation by the formula shown in Experiment 1).

[3] = test system: p-acetoamidophenol-induced liver damage; assay: Effect on p-acetoamidophenol-induced liver damage (liver glutathione decrease type); format: in vivo, Male Wistar rats; conditions: p.o., 50 μg/kg; blood after 24 hr
Description: Effect on p-acetoamidophenol-induced liver damage (liver glutathione decrease type)
Male Wistar rats weighing 180-220 g were used. After the rats had fasted for 18 hr, p-acetoamidophenol (2.5 g/kg) was given orally to them. The compound under test was administered orally 30 min before and 6 and 12 hr after administration of p-acetoamidophenol and blood was collected after 24 hr. Plasma GOT and GPT activities were determined in the manner described in experiment 1 and the results given in Table 4 show the inhibition rate compared with controls (calculation by the formula shown in Experiment 1)

[4] = test system: α-naphthylisothiocyanate-induced liver damage; assay: Effect on α-naphthylisothiocyanate-induced liver damage (cholangioatresia type); format: in vivo, Male Wistar rats; conditions: p.o., blood after 24 hr
Description: Effect on α-naphthylisothiocyanate-induced liver damage (cholangioatresia type)
Male Wistar rats weighing 190-220 g were used. After rats had fasted for 18 hr, α-naphthylisothiocyanate (ANIT) dissolved in olive oil (1.5% w/v) was given orally to them at 30 mg/kg body weight. The compound under test was administered orally 30 min before and 6 and 12 hr after administration of ANIT and blood was collected after 24 hr. Plasma GOT, GPT and bilirubin activities were determined and the results given in Table 5 show the inhibition rate compared with controls (calculation by the formula shown in Experiment 1).

[5] = test system: ethionine-induced acute pancreatitis; assay: Effect on ethionine-induced acute pancreatitis; format: in vivo, Male TCL-ICR mice; conditions: s.c., 5 μg/kg
Description: Effect on ethionine-induced acute pancreatitis
Male TCL-ICR mice from 4 weeks of age were used. After normal feeding the mice were given a choline-deficient diet (CD diet) for 2 days. Further after having fasted for 24 hr, they were given a choline-deficient diet containing 5% DL-ethionine (CDE diet) for 2 days, counted as days 1 and 2. The mice were then given the CD diet for 1 day and thereafter fed normally. Compound number 6 was administered subcutaneously to them at 5 μg/kg, twice daily, during the CDE diet on days 1 and 2, and then administered in the same manner once daily on days 3, 4 and 5. The effect of the compound under test on the survival rate at day 9 was determined. Further details of the test method appear in Gastroenterology, 78, 777 (1980).

[6] = test system: carbon tetrachloride (CCl4) induced liver damage; assay: Effect on carbon tetrachloride (CCl4) induced liver damage (liver cell necrosis type); format: in vivo, Male Wistar rats; conditions: for inhibition in vivo at 0.02 mg/kg: Rattus norvegicus, sc, 24 h, s.c., 20 μg/kg
Description: Effect on carbon tetrachloride (CCl4) induced liver damage (liver cell necrosis type)
Male Wistar rats weighing 180-220 g were used. Rats were dosed intraperitoneally with CCl4 dissolved in olive oil (5%, w/v) at a volume of 500 μl/kg after 18 hr starvation. The compound under test was administered orally (p.o.) or subcutaneously (s.c.) 6 and 12 hr after CCl4 injection in rats and blood was collected after 24 hr. Plasma glutamic oxaloacetic transaminase (GOT) and glutamic pyruvic transaminase (GPT) activities were determined by ultraviolet absorbance methods (optimised method based on the recommendations of the Deutsche Gesellschaft fur Klinische Chemie). The effects of the compounds tested were assessed by the inhibition rate in comparison with controls. Inhibition rate was calculated by the following formula. [formula] The results obtained are shown in the following Tables 1A and 1B for compounds of the general formula: [drawing 10] wherein R, R^1 and --X--Y--Z-- have the meanings indicated.
In Tables 1A, 1B and 2 to 5 hereinafter the dose shown in the amount given at each administration of the compound under test.

[7] = test system: carbon tetrachloride-induced liver cell necrosis; conditions: Stachur et al; cited from earlier work
[8] = test system: acute galactosamine-induced liver damage; conditions: Stachur et al; cited from earlier work
[9] = test system: blood platelet aggregation; conditions: cited from earlier work
thrombus = conditions: cited from earlier work
[10] = test system: diet-induced acute pancreatitis; conditions: mice; Manabe et al; cited from earlier work
[11] = test system: endotoxin-induced lung injury; conditions: sheep; Demling et al; cited from earlier work
[12] = test system: arachidonic acid-induced blood platelet aggregation; conditions: human; cited from earlier work
[13] = test system: isolate perfused cat liver; conditions: Araki et al; cited from earlier work
endotoxin shock = conditions: dog; Fletcher et al; cited from earlier work
artery = conditions: cited from earlier work

With `CCCC1CCC([C@H](O)/C=C/[C@H]2[C@H](O)CC(=O)[C@@H]2CC(=O)CCCCC(=O)OC)C1` (single isomer, unassigned) [Compound 6, 15-(3-Propylcyclopentyl)-16,17,18,19,20-pentanor-6-oxo-PGE1 methyl ester] the LD50 at 336 h (Acute toxicity test) was 10 to 20 mg/kg, the “inhibition rate GOT” value [1] was 24.5% and the “inhibition rate GPT” value [1] was 35.8%. For the same compound, the “inhibition rates GOT 36 hr after” value ([2]; 36 hr) was 37.2%, the “inhibition rates GPT 36 hr after” value ([2]; 36 hr) was 29.4% and the “inhibition rates GOT 48 hr after” value ([2]; 48 hr) was 46.3%. The “inhibition rates GPT 48 hr after” value ([2]; 48 hr) was 38.2%, the “inhibition rates GOT 54 hr after” value ([2]; 54 hr) was 39.1% and the “inhibition rates GPT 54 hr after” value ([2]; 54 hr) was 39.1%. The “inhibition GOT” value [3] was 33.2%, the “inhibition GPT” value [3] was 60.4% and the “inhibition GOT” value ([4]; 20 μg/kg) was 14.6%. For the same compound, the “inhibition GPT” value ([4]; 20 μg/kg) was 5.4%, the inhibition bilirubin ([4]; 20 μg/kg) was 18.2% and the “inhibition GOT” value ([4]; 50 μg/kg) was 44.6%. The “inhibition GPT” value ([4]; 50 μg/kg) was 49.8%, the inhibition bilirubin ([4]; 50 μg/kg) was 24.9% and the “inhibition GOT” value ([4]; 100 μg/kg) was 67.8%. The “inhibition GPT” value ([4]; 100 μg/kg) was 63.6%, the inhibition bilirubin ([4]; 100 μg/kg) was 50.5% and the “protection against death at day 9 from CDE diet” value [5] was “significant protection against death”. For the same compound, the “treated mice dead at day 9” value ([5]; twice daily days 1-2, once daily days 3-5, untreated control 12 of 16 dead) was 3 of 16, the inhibition in vivo at 0.02 mg/kg ([6]; plasma GOT after 24 hr, read-out: inhibition rate GOT) was 54.1% and the inhibition in vivo at 0.02 mg/kg ([6]; plasma GPT after 24 hr, read-out: inhibition rate GPT) was 43.2%. For the same compound, the “inhibition rate GOT” value ([6]; p.o., 100 μg/kg, plasma GOT after 24 hr) was 71.3% and the “inhibition rate GPT” value ([6]; p.o., 100 μg/kg, plasma GPT after 24 hr) was 67.5%.

For `CCCCC(C)(C)[C@H](O)/C=C/[C@H]1[C@H](O)CC(=O)[C@@H]1C/C=C\CCCC(=O)O` [16,16-dimethyl-PGE2], the “effect on carbon tetrachloride-induced liver cell necrosis” value [7] is listed as “prevents” and the “effect on acute galactosamine-induced liver damage” value [8] is listed as “prevents”.

For `CCCCC[C@H](O)/C=C/[C@H]1[C@H](O)CC(=O)[C@@H]1CCCCCCC(=O)O` [PGE1, Prostaglandin E1], the “effect on blood platelet aggregation” value [9] is listed as “inhibits” and the effect on thrombus (thrombus) is listed as “removes the thrombus and prevents thrombosis”.

For `CCCCC[C@H](O)/C=C/[C@H]1[C@H](O)CC(=O)[C@@H]1C/C=C\CCCC(=O)O` [PGE2], the “effect against diet-induced acute pancreatitis” value [10] is given as “effective”.

For `CCCCC[C@H](O)/C=C/[C@@H]1[C@H]2C/C(=C/CCCC(=O)O)O[C@H]2C[C@H]1O` [PGI2, (5Z,13E)-(9α,11α,15S)-6,9-epoxy-11, 15-dihydroxyprosta-5,13-dienoic acid], the “effect on endotoxin-induced lung injury” value [11] is listed as “prevents and is useful in treating”, the “effect on arachidonic acid-induced blood platelet aggregation” value [12] is listed as “strongly inhibits” and the “effect on hypoxia in the isolate perfused liver” value [13] is listed as “prevents and is useful in treating”. For the same compound, the “effect on endotoxin shock” value (endotoxin shock) was “prevents and is useful in treating” and the “activity on the artery” value (artery) was “relaxing activity”.
